These results are taken from patent US11833162B2, “Macrocyclic derivatives, process for preparing same and pharmaceutical compositions containing same” (LES LABORATOIRES SERVIER, priority 2017, dated 2023).

Assay [1] deals with RS4; 11 leukaemia tumour line. Description: In vitro cytotoxicity, Microculture Tetrazolium Assay (MTT). Format: cell-based. The following applies: Homo sapiens, RS4-11, 48 h, 11 cells, 48 hours exposure. As for the experimental part:
The cytotoxicity studies were carried out on the RS4; 11 leukaemia tumour line.
The cells are distributed onto microplates and exposed to the test compounds for 48 hours.
The cell viability is then quantified by a colorimetric assay, the Microculture Tetrazolium Assay (Cancer Res., 1987, 47, 939-942).

Assay [2] concerns cleaved (activated) form of caspase 3 in RS4; 11 tumour lysates. Description: Quantification of the cleaved form of caspase 3 in vivo (MSD ELISA) in RS4; 11 xenograft. The following applies: oral, 2 hours' treatment. Set-up: species or system mice (SCID strain); key: ratio of cleaved caspase 3, treated vs control mice. As for the experimental part: The ability of the compounds of the invention to activate caspase 3 is evaluated in a xenograft model of RS4; 11 leukaemia cells. 1×10^7 RS4; 11 cells are grafted sub-cutaneously into immunosuppressed mice (SCID strain). 25 to 30 days after the graft, the animals are treated orally with the various compounds. After 2 hours' treatment, the tumour masses are recovered and lysed, and the cleaved (activated) form of caspase 3 is quantified in the tumour lysates. This quantification is carried out using the “Meso Scale Discovery (MSD) ELISA platform” test, which specifically assays the cleaved form of caspase 3. It is expressed in the form of an activation factor corresponding to the ratio between the quantity of cleaved caspase 3 in the treated mice divided by the quantity of cleaved caspase 3 in the control mice.
For orientation: ELISA stands for enzyme-linked immunosorbent assay.

The target in assay [3] is Bcl-2 protein (histag-Bcl-2, UniProtKB P10415) (Homo sapiens, UniProt P10415). In words: Inhibition of Bcl-2 by the fluorescence polarisation technique. The following applies: fluorescence polarisation, 2 hours incubation; read-out: IC50 (μM) Bcl-2 FP. Format: binding. As for the experimental part:
The fluorescence polarisation tests were carried out on microplates (384 wells). The Bcl-2 protein, labelled (histag-Bcl-2 such that Bcl-2 corresponds to the UniProtKB® primary accession number: P10415), at a final concentration of 5×10^−9M, is mixed with a fluorescent peptide (Fluorescein-REIGAQLRRMADDLNAQY), at a final concentration of 1.00×10^−9M in a buffer solution (Hepes 10 mM, NaCl 150 mM, Tween20 0.05%, pH 7.4), in the presence or absence of increasing concentrations of test compounds. After incubation for 2 hours, the fluorescence polarisation is measured.
A general note: In fluorescence polarisation assays a small probe gives low polarisation when free and higher when bound to something large.

Bcl-2 protein, sequence (P10415 whole entry): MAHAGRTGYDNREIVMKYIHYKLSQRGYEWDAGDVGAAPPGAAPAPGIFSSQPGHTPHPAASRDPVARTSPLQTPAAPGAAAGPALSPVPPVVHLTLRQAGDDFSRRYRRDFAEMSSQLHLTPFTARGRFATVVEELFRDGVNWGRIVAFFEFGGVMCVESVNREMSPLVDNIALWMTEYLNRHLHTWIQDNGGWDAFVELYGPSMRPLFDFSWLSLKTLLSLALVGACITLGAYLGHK

In assay [1], `Cc1c(N2C(=O)c3cc(n(C)c3C)-c3cc(Cl)ccc3C(=O)N3CCCC(CCOc4cc(O)ccc42)C3)cc(C#N)n1C` (centres unmarked) [Example 29, 4-[16-Chloro-3-hydroxy-19,20-dimethyl-13,22-dioxo-6,7,8,9,10,11,19,22-octahydro-13H,23H-8,12-methano-21,18-(metheno)dibenzo[b,j][1,4,8,13]oxatriazacyclo-nonadecin-23-yl]-1,5-dimethyl-1H-pyrrole-2-carbonitrile] displayed an IC50 of 70.5 nM. Besides, the “Activation factor ± SEM (versus control)” value was 13.3 ± 6.3 in assay [2] (25 mg/kg, PEG/EtOH/Phosal) and 54.4 ± 9.7 in assay [2] (50 mg/kg, PEG/EtOH/Phosal).

Take `Cc1c2cc(n1C)-c1cc(Cl)ccc1C(=O)N1CCc3c(cccc3OCCc3c(cnn3C)N(c3ccc(O)cc3)C2=O)C1` [Example 16, 11-chloro-4-(4-hydroxyphenyl)-1,7,8-trimethyl-1,4,16,17,23,24-hexahydro-14H-15,18-methano-6,9-(metheno)dibenzo[l,r]pyrazolo[3,4-d][1,6,10,15]oxatriaza-cyclononadecine-5,14(8H)-dione]: the IC50 amounted to 53.3 nM in assay [1] and 0.00555 µM in assay [3]. Further, the “Activation factor ± SEM (versus control)” value in assay [2] (25 mg/kg, PEG/EtOH/Water) was 31.7 ± 2.9; in assay [2] (50 mg/kg, PEG/EtOH/Water) it was 75.1 ± 13.2.

In the case of `Cc1c2cc(n1C)-c1cc(Cl)ccc1C(=O)N1CCc3c(cccc3OCCCc3c(cc(C#N)n3C)N(c3ccc(O)cc3)C2=O)C1` [Example 18, 11-Chloro-4-(4-hydroxyphenyl)-1,7,8-trimethyl-5,14-dioxo-4,5,8,16,17,23,24,25-octahydro-1H,14H-15,18-methano-6,9-(metheno)dibenzo[b,h]-pyrrolo[3,2-p][1,6,11,15]oxatriazacycloicosine-2-carbonitrile], the IC50 in assay [1] came out at 8.36 nM; in assay [3], 0.00365 µM. The “Activation factor ± SEM (versus control)” value in assay [2] (6.25 mg/kg, PEG/EtOH/Phosal) is given as 7.8 ± 2.5; in assay [2] (12.5 mg/kg, PEG/EtOH/Phosal) it was 31.7 ± 6.0.

As to `Cc1c2cc(n1C)-c1cc(Cl)ccc1C(=O)N1Cc3ccccc3C(CCOc3c(cnn3C)N(c3ccc(O)cc3)C2=O)C1` (centres unmarked) [Example 22, 11-Chloro-4-(4-hydroxyphenyl)-1,7,8-trimethyl-1,4,16,21,22,23-hexahydro-14H-15,21-methano-6,9-(metheno)dibenzo[j,o]pyrazolo[3,4-b][1,4,8,13]oxatriaza-cyclononadecine-5,14(8H)-dione], the IC50 in assay [1] amounted to 11.8 nM; in assay [3], 0.0153 µM.

For the compound `Cc1c2cc(n1C)-c1cc(Cl)ccc1C(=O)N1CCc3c(cccc3OCCOc3c(cnn3C)N(c3ccc(O)cc3)C2=O)C1` [Example 21, 11-Chloro-4-(4-hydroxyphenyl)-1,7,8-trimethyl-1,4,16,17,23,24-hexahydro-14H-15,18-methano-6,9-(metheno)dibenzo[m,s]pyrazolo[3,4-e][1,4,7,11,16]dioxa-triazacycloeicosin-5,14(8H)-dione], the IC50 came out at 131 nM in assay [1] and 0.0148 µM in assay [3].

Consider `Cc1c2cc(n1C)-c1cc(Cl)ccc1C(=O)N1CCc3c(cccc3OCCCCCOc3ncc(cn3)N(c3ccc(O)cc3)C2=O)C1` [Example 40, 10-Chloro-2-(4-hydroxyphenyl)-5,6-dimethyl-24,30-dioxa-2,6,15,32,35-pentaazahexacyclo[29.2.2.1˜4,7˜.1˜15,19˜.0˜8,13˜.0˜8,23˜]heptatriaconta-1(33),4,7(37),8,10,12,18,20,22,31,34-undecuene-3,14-dione], for which the results for the IC50 in assay [1] and in assay [3] were 29.9 nM and 0.0064 µM, respectively.

Regarding `Cc1c2cc(n1C)-c1cc(Cl)ccc1C(=O)N1CCc3c(cccc3OCCC[n+]3cccc(c3)N(c3ccc(O)cc3)C2=O)C1` [Example 30, 6-Chloro-14-(4-hydroxyphenyl)-10,11-dimethyl-2,13-dioxo-23-oxa-1,10,14-triaza-19-azoniahexacyclo[26.3.1.1˜9,12˜.1˜15,19˜.0˜3,8˜.0˜24,29˜]tetratriaconta-3,5,7,9(34),11,15(33),16,18,24,26,28-undecaene trifluoromethanesulphonate], the IC50 in assay [1] is more than 1880 nM; in assay [3] it was 0.0314 µM.

Take `Cc1c2cc(n1C)-c1cc(Cl)ccc1C(=O)N1CCc3c(cccc3OCCCc3c(cnn3C)N(c3ccc(O)cc3)C2=O)C1` [Example 6, 11-Chloro-4-(4-hydroxyphenyl)-1,7,8-trimethyl-4,16,17,23,24,25-hexahydro-1H,14H-15,18-methano-6,9-(metheno)dibenzo[b,h]pyrazolo[4,3-p]-[1,6,11,15]oxatriazacycloicosine-5,14(8H)-dione]: the IC50 in assay [1] worked out at 26.6 nM; in assay [3], 0.0052 µM. For the same compound, the “Activation factor ± SEM (versus control)” value worked out at 6.8 ± 4.2 in assay [2] (12.5 mg/kg, PEG/EtOH/Watcr) and 32.3 ± 9.1 in assay [2] (25 mg/kg, PEG/EtOH/Water).

As usually defined, the IC50 is the concentration that gives 50% inhibition.
